Measurements taken from patent publication US11505586B2, “Interaction of Draxin and γ-netrins” (Max-Planck-Gesellschaft zur Foerderung der Wissenschaften …, priority 2014, dated 2022).
Each block holds one substance with its values, some of them ahead of it.

Key:
Netrin-1 = target: T1, Netrin-1 (Homo sapiens, UniProt O95631); experiment: AVEXIS pairwise binding screen, human proteins; conditions: both bait/prey orientations
T1 construct: made in house; host or cells: HEK293-6E (general AVEXIS method)
Text: (§1) AVEXIS was used to test pairwise binding events in both bait/prey orientations between human DRAXIN, the derived 21 amino acid peptide, human Netrin family members, and two representative Netrin receptors (DCC, UNC5B). The Matn4-bait served as an internal prey-protein control and was used for normalization of the A486 nm values; conditioned medium (CM) serves as negative control; n=3.
(§2) To determine the binding specificity of DRAXIN/Netrin interactions, we carried out a pairwise binding screen between human DRAXIN and human Netrin family members. Except Netrin-5, we included all human Netrin family members consisting of two secreted γ-Netrins (Netrin-1 and Netrin-3) and one secreted (Netrin-4) and two GPI-linked β-Netrins (Netrin-G1 and Netrin-G2) in our binding study. Human DRAXIN and a 21 amino acid Netrin binding fragment derived thereof (SEQ ID NO.: 1) bound to Netrin-1 and Netrin-3 but not to human β-Netrin family members (FIG. 13).

Netrin-3 = target: T2, Netrin-3 (Homo sapiens, UniProt O00634); experiment: AVEXIS pairwise binding screen, human proteins; conditions: both bait/prey orientations
T2 construct: made in house; host or cells: HEK293-6E (general AVEXIS method)
Text: as §1, §2

[1] = tested on: human β-Netrin family members; experiment: AVEXIS pairwise binding screen, human proteins; conditions: Netrin-4, Netrin-G1, Netrin-G2
Text: as §1, §2

Netrin1a [2] = experiment: AVEXIS domain mapping with monomeric prey proteins; format: binding, zebrafish; conditions: monomeric preys
Protocol: For the binding interface mapping experiments we used monomeric prey proteins. The concentration of the monomeric preys has been determined as described for the AVEXIS assay (β ? lactamase enzymatic activity). […] Both prey and bait orientations were tested in the domain mapping screen and two repeats for each orientation had been carried out.
To map down the Netrin1a binding region in DraxinA we generated a series of DraxinA truncations and deletions and tested them for binding against Netrin1a (FIG. 4).

Netrin1a [3] = experiment: AVEXIS extracellular protein-protein interaction screen; format: binding, zebrafish; conditions: prey against 141 bait proteins, bait against 191 prey proteins
Text: To detect extracellular protein-protein interactions in a high-throughput manner we used the AVEXIS assay as described in Bushell et al. (Bushell et al., 2008) with minor modifications.
In brief: A zebrafish protein library enriched for mainly in neuronal tissues expressed secreted proteins and extracellular domains of cell surface proteins has been assembled. The library consists of prey and bait proteins. Preys are composed of the extracellular domain (ECD) of interest followed by a CD4 tag (rat Cd4d3+4) and a pentamerization domain derived from the rat Comp protein followed by β-lactamase. For the bait proteins the ECDs are fused to a CD4 tag and a biotinylation peptide. […] The proteins in the supernatants have been quantified and normalized.
The bait proteins have been immobilized on streptavidin coated 96 well microtiter plates (one bait/well) and incubated for 1 hour at room temperature. […] Then the absorbance at 486 nm of each well has been measured using a μQuant spectrophotometer (BIO-TEK Instruments, INC). […]
In the primary screen interactions were ‘called’ if the absorbance (at 486 nm) of a well after 1 h of incubation was ≥0.1 and 3 Sigma above the standard deviations of the mean of all wells. All interactions detected in the primary screen have been retested in a validation screen by using independently produced batches of proteins.

Islr2 = experiment: Vasn/Islr2 interaction used to adjust the AVEXIS screen; format: binding; conditions: Vasn (Slit-like2)/Islr2, in preparation
Protocol: The bait proteins have been immobilized on streptavidin coated 96 well microtiter plates (one bait/well) and incubated for 1 hour at room temperature. After 3 wash steps using HBS as wash buffer the baits have been probed by 50 μl of normalized prey proteins. After one-hour incubation the non-bound preys have been washed away by 2 washes with HBST (0.05% Tween) followed by two HBS washes. Then 50 μl of nitrocefin/well (0.1 mg/ml) has been added and incubated for 1 h at room temperature. Then the absorbance at 486 nm of each well has been measured using a μQuant spectrophotometer (BIO-TEK Instruments, INC). As a positive control for the prey proteins we used the Matn4 ECD as mono-biotinylated bait protein.

T2 sequence (O00634 28-580): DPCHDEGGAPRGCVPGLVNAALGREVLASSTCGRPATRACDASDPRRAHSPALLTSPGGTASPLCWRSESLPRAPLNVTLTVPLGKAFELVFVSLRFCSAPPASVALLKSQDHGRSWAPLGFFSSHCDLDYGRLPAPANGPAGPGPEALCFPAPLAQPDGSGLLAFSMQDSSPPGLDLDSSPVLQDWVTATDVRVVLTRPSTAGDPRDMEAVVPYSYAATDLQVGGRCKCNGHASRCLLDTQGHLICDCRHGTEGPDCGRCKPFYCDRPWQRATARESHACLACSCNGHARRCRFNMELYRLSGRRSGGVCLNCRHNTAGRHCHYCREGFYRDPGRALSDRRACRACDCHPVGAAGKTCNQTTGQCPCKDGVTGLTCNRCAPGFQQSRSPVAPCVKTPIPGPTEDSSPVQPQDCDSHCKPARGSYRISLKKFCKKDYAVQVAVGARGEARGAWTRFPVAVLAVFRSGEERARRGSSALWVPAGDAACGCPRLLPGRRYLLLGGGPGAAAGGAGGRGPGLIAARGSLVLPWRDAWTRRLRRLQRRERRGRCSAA

binding to Netrin-1 (Netrin-1): bound | binding to Netrin-3 (Netrin-3): bound | binding to human β-Netrin family members [1]: not
Substance: EVMPTLDMALFDWTDYEDLKP (listed as Homo sapiens) [SEQ ID NO.: 1]

Substance: EVMPTLDMTLFDWTDYEDMKP (Danio rerio) [21aa DraxinA derived peptide, 21aa fragment (aa232-252) of zebrafish DraxinA, as AVEXIS prey or bait]
binding of DraxinA truncations and deletions to Netrin1a (Netrin1a [2]): sufficient for the binding | binding specificity against protein library (Netrin1a [3]; listed as DraxinAaa232-252-bait): only interacted with the Ntn1a-prey | binding specificity against protein library (Netrin1a [3]; listed as DraxinAaa232-252-prey): only bound to the Ntn1a-bait

Kd (Islr2): 12 µM
Substance: Vasn: Vasn (Slit-like2), binding partner of Islr2, reference weak interaction
